The text below walks through data of ChEMBL document CHEMBL5236579, “Hydrophobicity Determines the Bacterial Killing Rate of α-Helical Antimicrobial Peptides and Influences the Bacterial Resistance Development” (J Med Chem, 2022).

The test system of data set [1] is Staphylococcus aureus. In words: Antimicrobial activity against Staphylococcus aureus ATCC25923 by two fold broth microdilution method. The settings on record: read-out: MIC. It is filed as functional. In general terms: Dilution methods test growth across graded concentrations, often in twofold steps.
Data set [2] relates to Staphylococcus aureus. As to the kind of experiment: Antimicrobial activity against clinical isolates Staphylococcus aureus by two fold broth microdilution method. It is filed as functional.
The subject of data set [3] is Bacillus cereus. In words: Antimicrobial activity against clinical isolates Bacillus cereus by two fold broth microdilution method. It is filed as functional.
Data set [4] has as its system Escherichia coli. As to the kind of experiment: Antimicrobial activity against Escherichia coli ATCC27622 by two fold broth microdilution method. The data set is classed as functional.
Data set [5] has as its system Vibrio parahaemolyticus. As to the kind of experiment: Antimicrobial activity against Vibrio parahaemolyticus ATCC17802 by two fold broth microdilution method. The data set is classed as functional.
The subject of data set [6] is Vibrio parahaemolyticus. In words: Bactericidal activity against Vibrio parahaemolyticus ATCC17802 assessed as killing rate at 0.5 X MIC by measuring time limit of detection by bacterial killing kinetic assay. The data set is classed as functional.
Data set [7] deals with Vibrio parahaemolyticus. In words: Induction of morphological changes in Vibrio parahaemolyticus ATCC17802 assessed as massive cell collapse incubated at 5 times MIC and measured after 180 mins by scanning electron microscopy based analysis. It is filed as functional, organism-based.
Data set [8] deals with Vibrio parahaemolyticus. In words: Induction of morphological changes in Vibrio parahaemolyticus ATCC17802 assessed as surface fibrosis incubated at 5 times MIC and measured after 180 mins by scanning electron microscopy based analysis. It is filed as functional, organism-based.
For data set [9], the system named is Vibrio parahaemolyticus. In words: Induction of morphological changes in Vibrio parahaemolyticus ATCC17802 assessed as cellular inclusion leakage incubated at 5 times MIC and measured after 180 mins by scanning electron microscopy based analysis. It is filed as functional, organism-based.
Data set [10] has as its system HaCaT. As to the kind of experiment: Cytotoxicity against human HaCaT cells incubated for 48 hrs by MTT assay. The data set is classed as toxicity, cell-based. The settings on record: dose < 250 µg/ml. On the technique in general: Tetrazolium dyes change colour on reduction, which living cells bring about.
In data set [11] the test system is Peritoneal macrophage. In words: Cytotoxicity against mouse peritoneal macrophage cells incubated for 48 hrs by MTT assay. The data set is classed as toxicity, cell-based. The settings on record: dose < 250 µg/ml.
For data set [12], the system named is Cell membrane. As to the kind of experiment: Induction of inner membrane permeabilization in Vibrio parahaemolyticus ATCC17802 assessed as increase in PI fluorescence intensity at 5 times MIC by propidium iodide penetration assay. It is filed as cell membranes. The settings on record: time <= 200.0 min.
In data set [13] the test system is Staphylococcus aureus. In words: Bactericidal activity against Staphylococcus aureus ATCC25923 assessed as killing rate at 0.5 X MIC measured upto 180 min by bacterial killing kinetic assay. It is filed as functional, organism-based.
For data set [14], the system named is Escherichia coli. In words: Bactericidal activity against Escherichia coli ATCC25722 assessed as killing rate at 0.5 X MIC measured upto 180 min by bacterial killing kinetic assay. It is filed as functional, organism-based.
In data set [15] the test system is Cell membrane. As to the kind of experiment: Induction of inner membrane permeabilization in Vibrio parahaemolyticus ATCC17802 at 5 times MIC measured upto 200 mins by propidium iodide penetration assay. It is filed as cell membranes.
The test system of data set [16] is Cell membrane. In words: Induction of inner membrane permeabilization in Vibrio parahaemolyticus ATCC17802 assessed as calcein leakage at 5 times MIC by calcein-AM leakage assay. The data set is classed as cell membranes. The settings on record: time <= 200.0 min, TDE = time-dependent effect.
Data set [17] has as its system Vibrio parahaemolyticus. In words: Induction of bacterial resistance in Vibrio parahaemolyticus ATCC17802 assessed as fold increase in MIC treated over 30 serial passages measured after 24 hrs. It is filed as functional.

In brackets after ≈: the same amount, converted by molar mass. Activity calls are given as the source filed them. The rule behind the calls is not given here. Where a SMILES comes first, the peptide text is derived from it. Where only a bound is given, the exact number is not on record here.

In the case of `CC[C@H](C)[C@H](NC(=O)[C@H](C)NC(=O)[C@H](CCCNC(=N)N)NC(=O)[C@H](C)NC(=O)[C@H](CC(C)C)NC(=O)[C@H](CCCCN)NC(=O)[C@H](CCCCN)NC(=O)[C@H](Cc1ccccc1)NC(=O)[C@H](CC(C)C)NC(=O)CNC(=O)[C@H](C)N)C(=O)N[C@@H](CCCCN)C(=O)N[C@@H](CCCCN)C(=O)NCC(=O)N[C@@H](Cc1ccccc1)C(=O)N[C@@H](CCCCN)C(=O)N[C@@H](CCCCN)C(=O)O` (H-AGLFKKLARAIKKGFKK-OH), the minimum inhibitory concentration (MIC) (usually the lowest concentration found to suppress growth) came out at 4.69 µg/mL (≈ 2.46 µM) in data set [1]; 18.8 µg/mL (≈ 9.85 µM) in [2]; 9.38 µg/mL (≈ 4.93 µM) in data set [3]; 9.38 µg/mL (≈ 4.93 µM) in data set [4]; 4.69 µg/mL (≈ 2.46 µM) in [5]. Also, the Time in [6] is on record as over 180 min. Further, the outcome in data set [7], in [8], in data set [9] and in [12] was Active. Besides, the Activity result in data set [10] and in data set [11] was “Dose-Dependent Effect” throughout.

On to `CC[C@H](C)[C@H](NC(=O)[C@H](CCCCN)NC(=O)[C@H](CCCCN)NC(=O)[C@H](C)NC(=O)[C@H](CCCCN)NC(=O)[C@H](CCCCN)NC(=O)[C@H](CC(C)C)NC(=O)[C@@H](NC(=O)[C@H](CCCCN)NC(=O)[C@H](CCCCN)NC(=O)[C@H](Cc1c[nH]c2ccccc12)NC(=O)[C@H](Cc1ccccc1)NC(=O)[C@H](CCCCN)NC(=O)[C@H](CCCNC(=N)N)NC(=O)[C@H](CCCNC(=N)N)NC(=O)[C@@H](N)CCCCN)C(C)C)C(=O)N[C@@H](C)C(=O)O` (H-KRRKFWKKVLKKAKKIA-OH), for which the MIC in data set [1] amounted to 2.34 µg/mL (≈ 1.08 µM); in [2], 18.8 µg/mL (≈ 8.69 µM); in data set [3] it was 4.69 µg/mL (≈ 2.17 µM); in [4], 9.38 µg/mL (≈ 4.35 µM); in data set [5], 4.69 µg/mL (≈ 2.17 µM). The Time in [6] is given as over 180 min. The outcome in [13] and in data set [14] was Active.

For the compound `CC[C@H](C)[C@H](NC(=O)[C@H](CCCCN)NC(=O)[C@H](CCCCN)NC(=O)[C@H](CC(C)C)NC(=O)[C@H](CCCCN)NC(=O)[C@H](CCCCN)NC(=O)[C@H](CC(C)C)NC(=O)[C@@H](NC(=O)[C@H](CCCCN)NC(=O)[C@H](CCCCN)NC(=O)[C@H](Cc1c[nH]c2ccccc12)NC(=O)[C@H](Cc1ccccc1)NC(=O)[C@H](CCCCN)NC(=O)[C@H](CCCNC(=N)N)NC(=O)[C@H](CCCNC(=N)N)NC(=O)[C@@H](N)CCCCN)C(C)C)C(=O)N[C@@H](CC(C)C)C(=O)O` (H-KRRKFWKKVLKKLKKIL-OH), the MIC in [1] was 2.34 µg/mL (≈ 1.04 µM); in data set [2], 9.38 µg/mL (≈ 4.19 µM); in data set [3], 4.69 µg/mL (≈ 2.09 µM); in data set [4], 4.69 µg/mL (≈ 2.09 µM); in data set [5], 2.34 µg/mL (≈ 1.04 µM). The Time in [6] stood at 15 min. The result in [13] and in data set [14] was Active.

In the case of `CC[C@H](C)[C@H](NC(=O)[C@H](CCCCN)NC(=O)[C@H](CCCNC(=N)N)NC(=O)[C@H](C)NC(=O)[C@H](CC(C)C)NC(=O)[C@H](CCCCN)NC(=O)[C@H](CCCCN)NC(=O)[C@H](Cc1ccccc1)NC(=O)[C@H](CC(C)C)NC(=O)CNC(=O)[C@@H](N)CCCNC(=N)N)C(=O)N[C@@H](CCCCN)C(=O)N[C@@H](CCCCN)C(=O)NCC(=O)N[C@@H](Cc1ccccc1)C(=O)N[C@@H](CCCCN)C(=O)N[C@@H](CCCCN)C(=O)O` (H-RGLFKKLARKIKKGFKK-OH), the MIC stood at 4.69 µg/mL (≈ 2.29 µM) in data set [1]; 37.5 µg/mL (≈ 18.3 µM) in data set [2]; 9.38 µg/mL (≈ 4.58 µM) in data set [3]; 9.38 µg/mL (≈ 4.58 µM) in data set [4]; 4.69 µg/mL (≈ 2.29 µM) in data set [5]. Further, the Time in [6] was over 180 min. Also, the outcome in data set [7], in data set [8], in data set [9] and in data set [12] was Active. The Activity result in [10] and in [11] was “Dose-Dependent Effect” throughout.

Take `CC[C@H](C)[C@H](NC(=O)[C@H](CC(C)C)NC(=O)[C@H](CCCNC(=N)N)NC(=O)[C@H](CC(C)C)NC(=O)[C@H](CC(C)C)NC(=O)[C@H](CCCCN)NC(=O)[C@H](CCCCN)NC(=O)[C@H](Cc1ccccc1)NC(=O)[C@H](CC(C)C)NC(=O)CNC(=O)[C@@H](N)CCCNC(=N)N)C(=O)N[C@@H](CCCCN)C(=O)N[C@@H](CCCCN)C(=O)NCC(=O)N[C@@H](Cc1ccccc1)C(=O)N[C@@H](CCCCN)C(=O)N[C@@H](CCCCN)C(=O)O` (H-RGLFKKLLRLIKKGFKK-OH): the MIC was found to be 2.34 µg/mL (≈ 1.13 µM) in data set [1]; 18.8 µg/mL (≈ 9.04 µM) in data set [2]; 9.38 µg/mL (≈ 4.52 µM) in data set [3]; 4.69 µg/mL (≈ 2.26 µM) in data set [4]; 4.69 µg/mL (≈ 2.26 µM) in data set [5]. For the same compound, the Time in data set [6] amounted to 60 min. Besides, the outcome in data set [15] and in data set [12] was Active. In addition, the Activity entry in data set [16] is “Tde”.

As for `CC[C@H](C)[C@H](NC(=O)[C@H](CCCCN)NC(=O)[C@H](CC(C)C)NC(=O)[C@H](C)NC(=O)CNC(=O)[C@H](CC(N)=O)NC(=O)[C@H](CC(C)C)NC(=O)[C@@H](NC(=O)[C@H](CCCCN)NC(=O)[C@H](CCCCN)NC(=O)[C@H](Cc1c[nH]c2ccccc12)NC(=O)[C@H](Cc1ccccc1)NC(=O)[C@H](CCCCN)NC(=O)[C@H](CCCNC(=N)N)NC(=O)[C@H](CCCNC(=N)N)NC(=O)[C@@H](N)[C@@H](C)O)C(C)C)C(=O)N[C@@H](C)C(=O)O` (H-TRRKFWKKVLNGALKIA-OH), the MIC in [1] is 4.69 µg/mL (≈ 2.31 µM); in [2], 18.8 µg/mL (≈ 9.24 µM); in data set [3], 9.38 µg/mL (≈ 4.62 µM); in data set [4] it was 9.38 µg/mL (≈ 4.62 µM); in [5], 4.69 µg/mL (≈ 2.31 µM). For the same compound, the Time in data set [6] is 30 min. Also, the result in [13] and in data set [14] was Active.

Turning to `CC1(C)S[C@@H]2[C@H](NC(=O)[C@H](N)c3ccccc3)C(=O)N2[C@H]1C(=O)O` [AMPICILLIN], the MIC in data set [1] is 0.59 µg/mL (≈ 1.69 µM); in data set [2], over 200 µg/mL; in data set [3], 4.69 µg/mL (≈ 13.4 µM); in data set [4], 2.34 µg/mL (≈ 6.7 µM); in data set [5], 0.59 µg/mL (≈ 1.69 µM). In data set [17], the “fold change (FC)” value is 32.
